In patent publication US20240309014A1, “MACROCYCLIC COMPOUNDS AND USES THEREOF” (President and Fellows of Harvard College, priority 2017, published 2024):

Legend:
[1] = test system: α-SMA-positive CAFs in FaDu tumor; assay: Effect on α-SMA-positive CAFs in the FaDu subcutaneous model (FIG. 14); assay type: in vivo, nude mice
Protocol: A human squamous cell carcinoma of the head and neck (SCCHN) cell line FaDu, which had been cultured in an RPMI-1640 medium containing 10% FBS, and penicillin-streptomycin (culture medium), was adjusted to a concentration of 5×10^7 cells/mL with culture medium to prepare a cell suspension. The cell suspension was inoculated in a volume of 100 μL into a subcutaneous part of a right flank of nude mice, 6 weeks of ages (CAnN.Cg-Foxnlnu/CrlCrlj, female, Charles River Laboratories Japan, Inc.). Ten days after cell inoculation, the mice were grouped such that averages of the tumor volumes were substantially equal among the groups. The experiment was conducted on groups each consisting of 5 mice. Each test compound was dissolved in DMSO and a solution was stored in the freezer before use. Immediately before the administration, the stock solution was diluted with saline. The test compound in saline was intravenously administered at 20 μg/kg, 60 μg/kg, or 180 μg/kg. […] The area of α-SMA-positive region in the whole tumor was quantified by counting the α-SMA-positive objects using inform 2 software (PerkinElmer Inc.) Area of the tumor region was measured by assessing the hematoxylin-staining area using inform 2 software (PerkinElmer Inc.). […] A suppression rate of the α-SMA- positive area of the test compound-dosing group was calculated with the below formula: […]

[2] = test system: human bladder carcinoma cell line UM-UC-3; assay: Bladder carcinoma cell line growth inhibition assay, UM-UC-3; assay type: cell-based; conditions: UMUC3, 72 h, 3 days incubation, CellTiter-Glo 2.0
Protocol: In this assay, the growth inhibitory activity of Compound (1) in human bladder carcinoma cell lines RT4, RT112/84, and UM-UC-3 was measured. RT4 and RT112/84 cells were maintained in a RPMI-1640 (FUJIFILM Wako Pure Chemical Corporation, 189-02025) medium containing 10% fetal bovine serum (FBS: SIGMA Life Science, 172012-500ML), and penicillin and streptomycin (FUJIFILM Wako Pure Chemical Corporation, 168-23191) in a 5% CO2 incubator (37° C.). UM-UC-3 cells were maintained in an E-MEM (FUJIFILM Wako Pure Chemical Corporation, 051-07615) medium containing 10% FBS, 1 mM Sodium Pyruvate (FUJIFILM Wako Pure Chemical Corporation, 190-14881), and penicillin and streptomycin in a 5% CO2 incubator (37° C.). To each well of a 96 well plate (Coming, 3904), 90 μL of each cell suspension adjusted to a concentration of 5.55×10^3 cells/mL (RT4 or UM-UC-3) or 3.33×10^4 cells/mL (RT112/84) with the culture medium was added, and the cells were incubated overnight in a 5% CO2 incubator (37° C.). On the next day, 10 μL of Compound (1) in three-fold dilution series suspended in the culture medium was added to each well, and the resultant was incubated for 3 days in a 5% CO2incubator (37° C.). Then, cell viability was determined by CellTiter-Glo® 2.0 Assay (Promega Corporation, G9243) with ARVO-X4 Multimode Plate Reader (Perkin-Elmer, Wellesley, MA). […]

[3] = test system: murine undifferentiated colon carcinoma cell line CT26; assay: CT26 subcutaneous syngeneic model in combination with anti-mPD-1 antibody; assay type: in vivo, BALB/c mice
Protocol: A murine undifferentiated colon carcinoma cell line CT26, which had been cultured in an RPMI-1640 medium containing 10% FBS, and penicillin and streptomycin, was adjusted to a concentration of 2×10^7 cells/mL with Hank's Balanced Salt Solution to prepare a cell suspension. On day 1, the cell suspension was inoculated in a volume of 100 μL into a subcutaneous part of a right flank of BALB/c mice, 6 weeks of ages (BALB/cAnNCrlCrlj, female, Charles River Laboratories Japan, Inc.). Two days after the cell inoculation, the mice were randomly divided into four groups and each group consists of 8 mice. The shortest diameter and the longest diameter of a tumor in each mouse were measured by using an electronic digital caliper (Digimatic™ caliper, Mitutoyo Corporation), so as to calculate the volume of the tumor in accordance with the following calculation formula: […]
The test compound was intravenously administered at 0.09 mg/kg on days 3 and 11. Anti-mPD-1 antibody (BE0146, Bio X Cell) was intravenously administered at 10 mg/kg on days 3, 7, 11, and 15.

Question: Which results are given for `C=C1C[C@@H]2CC[C@@]34C[C@H]5O[C@H]6[C@@H](O3)[C@H]3O[C@H](CC[C@@H]3O[C@H]6C5O4)CC(=O)O[C@@H]3[C@@H](C)[C@@H]4O[C@@H]5C[C@]6(C[C@@H]7O[C@]8(C[C@H](C)[C@@H]9O[C@H](CN)[C@H](O)C[C@@H]9O8)C[C@H](C)[C@@H]7O6)O[C@@H]5C[C@@H]4O[C@H]3C[C@H]3O[C@@H](CC[C@@H]1O2)C[C@@H](C)C3=C` (stereo in doubt) [Compound (1)]?
Answer: α-SMA positive area ([1]; single i.v. dose of 180 μg/kg, Day 6): significantly reduced the α-SMA positive area; α-SMA positive area ([1]; single i.v. dose of 60 and 180 μg/kg, Day 3): significantly reduced the α-SMA positive area; IC50 [2]: 0.512 nM; Inhibition of tumor growth on day 15 (%) ([3]; 0.09 mg/kg i.v. days 3 and 11 + anti-mPD-1 antibody 10 mg/kg): 62%; Inhibition of tumor growth on day 15 (%) ([3]; single agent: anti-mPD-1 antibody 10 mg/kg or Compound (1) 0.09 mg/kg): 30%
